{"source": "patent US6967034B2", "about": "“Herbal-based composition for treating acute and chronic myeloid leukemia” (Council of Scientific and Industrial Research, priority 2002, dated 2005)", "format_in_all_cases": "cell-based, human", "key": {"[1]": {"tested_on": "CD33+ myeloid leukemia cells", "assay": "Incubation of PBMC of CD33+ myeloid leukemia patients, viability count and flow cytometry", "conditions": "purified compound, varied concentrations, 48 h", "procedure": "Preparation of peripheral blood mononuclear cells (PBMC) from CD33+ myeloid leukemia patients ex vivo blood.\n(§1) Whole blood (10 ml) was drawn from a previously diagnosed CD33+ myeloid leukemic patient and mononuclear cells were separated by Ficoll/hypaqal density gradient centrifugation.\nIncubation of PBMC of myeloid leukemia patients with crude Piper betel extract. PBMC (2×10^6/ml) of myeloid leukemia patients were incubated with Piper betel extract (10.0 mg/ml) for 48 hours and then washed and counted for viability.\nIncubation of PBMC of myeloid leukemia patients with fraction E in vitro. PBMC (2×10^6/ml) of myeloid leukemia patients were incubated with varied concentrations of fraction E for 48 hours. Cells were then washed and counted for viability.\n(§2) Incubation of PBMC of myeloid leukemia patients with purified compound 3-O-p-coumaryl quinic acid in vitro. PBMC (2×10^6/ml) of myeloid leukemia patients were incubated with varied concentrations of purified compound for 48 h. Cells were then washed, and counted for viability.\nFlow cytometry of myeloid leukemia cells. Myeloid leukemia cells before and after in vitro incubation with crude Piper betel extract, purified fraction E or purified 3-O-p-coumaryl quinic acid were marked with anti-CD33-FITC and anti-CD13-PE monoclonal antibodies. Cells were then analysed in a flow cytometer (FACS Calibur, Bection Dickinson, USA)"}, "AML cells": {"tested_on": "AML cells", "assay": "Growth inhibition of AML cells in vitro", "conditions": "48 h", "procedure": "as §1, §2\nIncubation of myeloid leukemic cells with fractions having retention time 3.60 (fraction-1) and 24.00 min (fraction 9). PBMC of myeloid leukemic patients were incubated with above-mentioned fractions, alone or in combination of the two for 48 HRs. Cells were then washed and counted for viability."}, "CML cells": {"tested_on": "CML cells", "assay": "Growth inhibition of CML cells in vitro", "conditions": "48 h", "procedure": "as §1, §2"}}}
{"smiles": "O=C(C=Cc1ccc(O)cc1)OC1CC(O)(C(=O)O)CC(O)C1O", "note": "(stereo not drawn) [3-O-p-coumaryl quinic acid]", "values": [{"measurement": "Destruction of PBMC of CD33+ myeloid leukemia patients (both AML and CML)", "setting": "[1]", "value": "destroyed"}, {"measurement": "Percent inhibition of growth", "setting": "AML cells; 100 μg/ml", "value": 53.37, "unit": "%"}, {"measurement": "Percent inhibition of growth", "setting": "AML cells; 600 μg/ml", "value": 100.00, "unit": "%"}, {"measurement": "% Inhibition (percent inhibition of growth)", "setting": "AML cells; single fraction, dose 100 μg/ml", "value": 54.00, "unit": "%"}, {"measurement": "Percent inhibition of growth", "setting": "CML cells; 100 μg/ml", "value": 2.53, "unit": "%"}, {"measurement": "Percent inhibition of growth", "setting": "CML cells; 600 μg/ml", "value": 79.50, "unit": "%"}]}
